Results from patent US20260001910A1, “PEPTIDES AND USES THEREOF” (PreveCeutical Medical Inc., priority 2021, published 2026).

How the values were obtained:
[1] = From the text: The MTT (3-[4.5-dimethylthiazol-2-yl]-2,5=diphenyl tetrazolium bromide) assay is based on a process undertaken by living cells, involving the conversion of MTT into formazan crystals. This assay is used routinely to measure the in vitro cytotoxic effects of drugs on cell lines or primary patient cells (Van Meerloo et al., 2011).
The glioblastoma multiforme (GBM) cell lines used were U87 and U251 cells and patient derived cells grown as oncospheres (081024 cells). Human adherent GBM cell lines U87 and U251 were cultured in RPMI medium (Life Technologies Melbourne Australia) supplemented with 5% v/v FBS, 100 U/mL penicillin and 100 μg/mL streptomycin. 081024 cells were cultured in NeuroCult™ NS-A Proliferation medium with 0.2% (v/v) hepain, 20 ng/mL EGF and 10 ng/ml FGF.
8×10^3 U87 and 7×10^3 U251 cells per well were seeded in 96 well plates in 200 μL serum-containing RPMI medium and incubated at 37° C. with 5% CO2 for 24 hours. After one wash with serum-free medium, 100 μL serum-free medium with different concentration of peptide SEQ ID NO:1 was added to each well. After 48 hours incubation, 10 μL of 0.5 mg/mL MTT was added and incubated for 2 hours at 37° C. Formazan crystals were dissolved by 200 μL/well dimethyl sulfoxide (DMSO) and shaking for 15 minutes. The UV absorbance was read with an iMark™ microplate absorbance reader at 595 nm (Bio-Rad Laboratories). Background absorbance was subtracted and results expressed as the % viability of control (untreated cells).

[2] = molecular target: T1, recombinant MMP-2 (Homo sapiens, UniProt P08253); assay: MMP-2 Inhibitor Screening Assay Kit (colorimetric); type: biochemical
T1 construct: purchased ab139446
Protocol: MMP-2 is an important target for inhibitor screening due to its involvement in cancer growth, angiogenesis, and metastasis. The MMP-2 screening assay was carried out with a commercially available MMP-2 Inhibitor Screening Assay Kit (Colorimetric, Catalog: ab139446) based on the manufacturers protocol. This assay is based on quantification of recombinant MMP-2 activity using a colorimetric assay (MMP-2 degrades a chromogenic substrate). The assay provides NNGH (N-isobutyl-N-(4-methoxyphenylsulfonyl) glycyl hydroxamic acid), a small molecule inhibitor, as a positive control (NNGH). […] Each determination was run in duplicate.
Briefly, MMP Substrate and MMP Inhibitor were warmed to room temperature to thaw DMSO. MMP Inhibitor (NNGH), MMP-2 substrate and MMP-2 enzyme were diluted with assay buffer to required concentration. 20 μL of MMP-2 enzyme and MMP-2 inhibitor (peptides, Chlorotoxin and NNGH) was added, then 50 μL of assay buffer was added and the reaction mixture incubated at 37° C. for 1 h. After incubation, 10 μL of MMP Substrate was added to start reaction. The reactions were continuously read at 412 nm in a microplate reader. Data was recorded at 1 min. time intervals for 10 to 20 min. The data as was plotted as optical density (OD) versus time for each sample. The reaction velocity (V) was obtained in OD/min: determine the slope of a line fit to the linear portion of the data plot using an appropriate routine. Then using the equation above the inhibitor % activity remaining was calculated. The control was without inhibitor.

[3] = system: MMP-9; assay: Gelatin zymography of conditioned media (metalloprotease production); type: cell-based, human; details: conditioned medium, compared to no-peptide control
From the text: (§1) To assess whether the peptide SEQ ID NO. 1 impacted MMP-2, MMP-9 and uPA production Zymography was used.
(§2) Zymography is a technique for studying hydrolytic enzymes on the basis of substrate degradation (Vandooren, J. et al. 2013). The in-gel zymography hydrolytic enzymes are separated by their molecular weights and detected by their ability to degrade a substrate. To detect the activity of MMP-2 and MMP-9 in various cell lines, conditioned media were collected in 3 independent experiments and analysed by gelatin zymography to quantify the level of gelatin digestion, which reflects MMP-2 and MMP-9 activity and production. Cascin-Plasminogen zymography was conducted to determine the activity level of uPA in the conditioned medium from various cell lines. Active uPA converts plasminogen into plasmin which then digests casein, thus clear bands where digestion of casein have occurred indirectly represent uPA activity.
(§3) The effect of the peptides on matrix protease production was tested using in-gel zymography. If the substrate included in the gel is gelatin, the enzymes detected are gelatinases: MMP-2 and MMP-9 (the latter is often of low abundance). If the gel contains casein and plasminogen, the enzymes tested are urokinase plasminogen activators (uPA); uPA is a therapeutic target in GBM.
(§4) An equal amount of protein from each sample was mixed with 5 μL of Laemmli buffer (0.01% Bromophenol Blue (W/V), 5% SDS (W/V), 22% glycerol (V/V), 14% 0.5 M Tris pH 6.8 (V/V)) and loaded onto a 10% polyacrylamide gel co-polymerized with 1 mg/ml of gelatin, and electrophoresed at 120V for 2 hours on ice. The gel was incubated in […] solution (Triton X-100 2.5% (V/V), 1 M Tris pH 7.5 5% (V/V), 0.5 M CaCl2) 1% (W/V) at room temperature overnight on an orbital shaker. The gel was incubated in a second solution for 3 hours at 37° C. The gel was then stained with Coomassie blue solution (Coomassie blue 0.25%, methanol 45%, acetic acid 10%) and destained in methanol 25% (V/V), acetic acid 10% (V/V) destaining solution until clear bands against the dark background appeared around 72 kDa and 95 kDa, representing MMP-2 and MMP-9 activity, respectively. Clear bands around 50 kDa appeared against the dark background representing uPA activity. The gels were scanned, and uPA, MMP-2 and MMP-9 were quantified by densitometry using NIH Image J software.
(§5) SEQ ID NO. 1 was compared to a control containing no peptide to evaluate whether the peptide can reduce the production of matrix proteinases. A reduction in the production of matrix proteinases may be anticipated to result in comparatively less degradation of the extra-cellular matrix and so this could be one pathway by which the invasion potential could be reduced.

[4] = system: MMP-2; assay: as above; type: cell-based, human; details: for MMP-2 production: conditioned medium, compared to no-peptide control
From the text: as §1, §2, §3, §4, §5

[5] = system: uPA; assay: Casein-plasminogen zymography of conditioned media (uPA production); type: cell-based, human; details: for uPA production: conditioned medium, compared to no-peptide control
From the text: as §1, §2, §3, §4, §5

[6] = overall, versus no-peptide control

T1 sequence (P08253 110-446 limits assumed): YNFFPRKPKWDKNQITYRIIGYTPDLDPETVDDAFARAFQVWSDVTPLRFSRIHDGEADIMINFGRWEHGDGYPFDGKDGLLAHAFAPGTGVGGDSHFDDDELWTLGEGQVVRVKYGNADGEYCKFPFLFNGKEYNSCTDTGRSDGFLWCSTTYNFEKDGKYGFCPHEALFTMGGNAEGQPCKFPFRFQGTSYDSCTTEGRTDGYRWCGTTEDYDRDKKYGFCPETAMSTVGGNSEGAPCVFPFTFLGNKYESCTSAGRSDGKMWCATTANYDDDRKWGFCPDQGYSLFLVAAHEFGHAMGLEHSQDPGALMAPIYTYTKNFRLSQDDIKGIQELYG

With `CC(C)C[C@@H](NC(=O)[C@@H](Cc1ccccc1)NC(=O)CNC(=O)CNC(=O)[C@H](N)Cc1ccc(O)cc1)C(=O)N[C@H](CCCNC(=N)N)C(=O)N[C@H](CCCNC(=N)N)C(N)=O` [SEQ ID NO. 1, tyr-Gly-Gly-phe-leu-arg-arg-NH2] the viability at 5 µM [1] was 100%, the viability at 50 µM [1] was 101% and the viability at 100 µM [1] was 94.4%. The activity at 1 µM ([2]; 1 μM, lower % = higher inhibitory activity, read-out: % inhibition (MMP-2 inhibitor screening)) was 66.4%, the activity at 10 µM ([2]; 10 μM, lower % = higher inhibitory activity, read-out: % inhibition (MMP-2 inhibitor screening)) was 61.8% and the activity at 100 µM ([2]; 100 μM, lower % = higher inhibitory activity, read-out: % inhibition (MMP-2 inhibitor screening)) was 50.4%. For the same molecule, the “ability to inhibit MMP-2 activity (in words)” value ([2]; 1 to 100 μM) was “dose dependent ability to inhibit MMP-2 activity”, the MMP-9 production ([3]; 081024 cells) was 101.4 and the MMP-9 production ([3]; U87 cells) was 67.83. It also gave an MMP-9 production ([3]; U251 cells) of 65.41, an MMP-2 production ([4]; 081024 cells) of 100.50 and an MMP-2 production ([4]; U87 cells) of 91.11. The MMP-2 production ([4]; U251 cells) was 97.13, the “effect on production of MMP-2 (in words)” value [4, 6] was “did not decrease the production” and the uPA production ([5]; 081024 cells) was 97.57 ± 13.7. For the same molecule, the uPA production ([5]; U87 cells) was 109.1 ± 12.41, the uPA production ([5]; U251 cells) was 95.22 ± 12.83 and the “effect on production of uPA (in words)” value [5, 6] was “did not decrease the production”.
